Experimental data: US20240254109A1, “SALT CONTAINING PIPERAZINE POLYCYCLIC DERIVATIVE, CRYSTAL FORM THEREOF, PREPARATION METHOD THEREFOR, AND USE THEREOF” (Shanghai Hansoh Biomedical Co., Ltd., priority 2021, published 2024)

How the values were obtained:
Assay type in all cases: physicochemical
[1] = Stability study of salt (5 days and 10 days, HPLC related substances)
Procedure: 2.1.3 Stability Study of Salt
Hydrochloride and p-toluenesulfonate of N-(trans-3-(2-(4-(2,3-dichlorophenyl)piperazin-1-yl)ethyl)cyclobutyl)oxazole-2-carboxamide were weighed about 1 mg, respectively, and then placed under light (5000 lux), high temperature (60° C.), high humidity (92.50 RH), high temperature and high humidity (50° C. and 75% RH) for 5 days and 10 days, then a diluent DMSO was added to prepare a solution with salt concentration of about 1 mg/mL.
The chromatographic peak area normalization method was used to calculate the changes of related substances.

[2] = Crystal form stability study of hydrochloride for 30 days
Procedure: 9. Crystal Form Stability Study of Hydrochloride for 30 Days
The 30 days stability of hydrochloride of N-(trans-3-(2-(4-(2,3-dichlorophenyl)piperazin-1-yl)ethyl)cyclobutyl)oxazole-2-carboxamide under four conditions of 60° C. (closed), 40° C. & RH 75% (open), 25° C./RH 92.5% (open) and light (5000±500 Lux) was detected, which provided scientific basis for the production, packaging, storage and transportation conditions of drugs.
The diluent 80% methanol solution was added to prepare a solution containing about 0.5 mg/mL hydrochloride. The mixture was sonicated for 30 min to produce a clear solution. 1 mL of the solution was filtered and measured by HPLC. See “2.3.4” for the HPLC analysis method. The content of related substances was calculated according to the peak area normalization method, and the results are shown in Table 32 below.

[3] = Solubility of hydrochloride in different media; details: 37° C.
Procedure: 2.1.5 Solubility of Hydrochloride in Different Media
1.0 mg of compound was weighed into a 2 mL glass bottle, then 1 mL of dissolving medium was added respectively. The glass bottle was shaken overnight on an electrothermal constant temperature shaking tank, and the temperature was set to 37° C. After 24 hours, the sample solution was filtered with a […] mixed water fiber filter membrane, and the subsequent filtrate was taken to test its content by HPLC. HPLC detection methods are described in “Stability Study Conditions”.

[4] = Hygroscopicity study of salt (DVS)
Excerpt: 2.1.4 Hygroscopicity Study of Salt
The hygroscopicity of a drug refers to the characteristics of the drug's ability or degree of water absorption at a certain temperature and humidity. […] (DVS) was used to characterize the ability of drugs to absorb water under different humidity conditions. The instrument parameters are detailed in the table below.

[5] = GWGS-5 d (high temperature and high humidity)
[6] = GWGS-10 d (high temperature and high humidity)
[7] = high temperature, light, high humidity, high temperature and high humidity, 5 and 10 days
[8] = WS-30 d (high temperature and high humidity)

Compound: Cl.O=C(N[C@H]1C[C@H](CCN2CCN(c3cccc(Cl)c3Cl)CC2)C1)c1ncco1 [N-(trans-3-(2-(4-(2,3-dichlorophenyl)piperazin-1-yl)ethyl)cyclobutyl)oxazole-2-carboxamide hydrochloride]
- RRT 1.000 Area % ([1]; 0 d): 99.619%
- RRT 1.050 Area % ([1]; 0 d): 0.153%
- RRT 1.200 Area % ([1]; 0 d): 0.163%
- RRT 1.550 Area % ([1]; 0 d): 0.065%
- total Area % (related substances) ([1]; 0 d): 0.381%
- RRT 0.220 Area % ([1]; GS-5 d (high humidity)): 0.055%
- RRT 1.000 Area % ([1]; GS-5 d (high humidity)): 99.556%
- RRT 1.050 Area % ([1]; GS-5 d (high humidity)): 0.160%
- RRT 1.200 Area % ([1]; GS-5 d (high humidity)): 0.161%
- RRT 1.550 Area % ([1]; GS-5 d (high humidity)): 0.069%
- total Area % (related substances) ([1]; GS-5 d (high humidity)): 0.444%
- RRT 1.000 Area % ([1]; GS-10 d (high humidity)): 99.619%
- RRT 1.050 Area % ([1]; GS-10 d (high humidity)): 0.153%
- RRT 1.200 Area % ([1]; GS-10 d (high humidity)): 0.163%
- RRT 1.550 Area % ([1]; GS-10 d (high humidity)): 0.065%
- total Area % (related substances) ([1]; GS-10 d (high humidity)): 0.381%
- RRT 1.000 Area % ([1]; GW-5 d (high temperature)): 99.604%
- RRT 1.050 Area % ([1]; GW-5 d (high temperature)): 0.164%
- RRT 1.200 Area % ([1]; GW-5 d (high temperature)): 0.163%
- RRT 1.550 Area % ([1]; GW-5 d (high temperature)): 0.068%
- total Area % (related substances) ([1]; GW-5 d (high temperature)): 0.396%
- RRT 1.000 Area % ([1]; GW-10 d (high temperature)): 99.590%
- RRT 1.050 Area % ([1]; GW-10 d (high temperature)): 0.170%
- RRT 1.200 Area % ([1]; GW-10 d (high temperature)): 0.163%
- RRT 1.550 Area % ([1]; GW-10 d (high temperature)): 0.077%
- total Area % (related substances) ([1]; GW-10 d (high temperature)): 0.410%
- RRT 1.000 Area % [1, 5]: 99.603%
- RRT 1.050 Area % [1, 5]: 0.144%
- RRT 1.200 Area % [1, 5]: 0.165%
- RRT 1.550 Area % [1, 5]: 0.088%
- total Area % (related substances) [1, 5]: 0.397%
- RRT 1.000 Area % [1, 6]: 99.614%
- RRT 1.050 Area % [1, 6]: 0.157%
- RRT 1.200 Area % [1, 6]: 0.161%
- RRT 1.550 Area % [1, 6]: 0.067%
- total Area % (related substances) [1, 6]: 0.386%
- RRT 1.000 Area % ([1]; GZ-5 d (light)): 99.617%
- RRT 1.050 Area % ([1]; GZ-5 d (light)): 0.148%
- RRT 1.200 Area % ([1]; GZ-5 d (light)): 0.160%
- RRT 1.550 Area % ([1]; GZ-5 d (light)): 0.075%
- total Area % (related substances) ([1]; GZ-5 d (light)): 0.383%
- RRT 1.000 Area % ([1]; GZ-10 d (light)): 99.604%
- RRT 1.050 Area % ([1]; GZ-10 d (light)): 0.162%
- RRT 1.200 Area % ([1]; GZ-10 d (light)): 0.158%
- RRT 1.550 Area % ([1]; GZ-10 d (light)): 0.077%
- total Area % (related substances) ([1]; GZ-10 d (light)): 0.396%
- growth of impurities [1, 7]: no significant growth of impurities
- stability of salt [1, 7]: good stability
- RRT 1.00 Area % ([2]; 0 d): 99.44%
- RRT 1.07 Area % ([2]; 0 d): 0.07%
- RRT 1.93 Area % ([2]; 0 d): 0.42%
- RRT 2.43 Area % ([2]; 0 d): 0.07%
- RRT 1.00 Area % ([2]; GS-30 d (high humidity)): 99.43%
- RRT 1.07 Area % ([2]; GS-30 d (high humidity)): 0.11%
- RRT 1.93 Area % ([2]; GS-30 d (high humidity)): 0.39%
- RRT 2.43 Area % ([2]; GS-30 d (high humidity)): 0.07%
- RRT 1.00 Area % ([2]; GW-30 d (high temperature)): 99.51%
- RRT 1.07 Area % ([2]; GW-30 d (high temperature)): 0.08%
- RRT 1.93 Area % ([2]; GW-30 d (high temperature)): 0.41%
- RRT 1.00 Area % ([2]; GZ-30 d (light)): 99.43%
- RRT 1.07 Area % ([2]; GZ-30 d (light)): 0.09%
- RRT 1.93 Area % ([2]; GZ-30 d (light)): 0.41%
- RRT 2.43 Area % ([2]; GZ-30 d (light)): 0.08%
- RRT 1.00 Area % [2, 8]: 99.46%
- RRT 1.07 Area % [2, 8]: 0.09%
- RRT 1.93 Area % [2, 8]: 0.38%
- RRT 2.43 Area % [2, 8]: 0.07%
- solubility in different pH buffers (dependence) ([3]; 24 hours): pH-dependent
- solubility ([3]; acidic conditions): better solubility
- solubility ([3]; neutral or alkaline conditions): poor solubility
- solubility in water compared with free base ([3]; water): greatly improved
- hygroscopicity (DVS) [4]: slightly hygroscopic
